Target: T1, Human Factor XIIa (Homo sapiens, UniProt P00748)
T1 construct: purchased Enzyme Research Laboratories
T1 sequence (P00748 373-615 limits assumed): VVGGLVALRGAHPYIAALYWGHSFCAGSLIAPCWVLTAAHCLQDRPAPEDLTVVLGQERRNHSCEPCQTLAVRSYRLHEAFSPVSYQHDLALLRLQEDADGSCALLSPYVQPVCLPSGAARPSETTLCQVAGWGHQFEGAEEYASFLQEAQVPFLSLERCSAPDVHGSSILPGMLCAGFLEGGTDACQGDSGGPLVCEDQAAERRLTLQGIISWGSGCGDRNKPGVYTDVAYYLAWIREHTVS
T1 sequence (P00748 20-372 partner limits assumed): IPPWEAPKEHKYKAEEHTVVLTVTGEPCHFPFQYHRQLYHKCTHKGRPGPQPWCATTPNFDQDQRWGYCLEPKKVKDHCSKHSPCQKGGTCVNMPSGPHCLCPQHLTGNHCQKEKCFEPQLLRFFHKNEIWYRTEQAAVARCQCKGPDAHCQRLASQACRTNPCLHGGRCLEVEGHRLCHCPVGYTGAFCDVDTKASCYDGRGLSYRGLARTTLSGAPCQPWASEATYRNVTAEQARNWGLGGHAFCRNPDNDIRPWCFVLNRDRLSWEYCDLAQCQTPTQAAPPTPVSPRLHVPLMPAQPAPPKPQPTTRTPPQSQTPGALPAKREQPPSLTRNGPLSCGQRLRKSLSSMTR
Assay: Determination of Factor XIIa inhibitory activity in vitro (fluorogenic substrate H-DPro-Phe-Arg-AFC)
Format: biochemical
Conditions: Human Factor XIIa (Enzyme Research Laboratories), 25° C., read-out: Human FXIIa IC50
Procedure: Determination of the % Inhibition for FXIIa
Factor XIIa inhibitory activity in vitro was determined using standard published methods (see e.g. Shori et al., Biochem. Pharmacol., 1992, 43, 1209; Baeriswyl et al., ACS Chem. Biol., 2015, 10 (8) 1861; Bouckaert et al., European Journal of Medicinal Chemistry 110 (2016) 181). Human Factor XIIa (Enzyme Research Laboratories) was incubated at 25° C. with the fluorogenic substrate H-DPro-Phe-Arg-AFC and various concentrations of the test compound. Residual enzyme activity (initial rate of reaction) was determined by measuring the […] and the IC50 value for the test compound was determined.

| IC50 [µM] | SMILES |
| --- | --- |
| 1 to 3 | CC(C)N(CCNc1ncc(C(=O)NCc2ccc3c(N)nccc3c2)cc1Cl)C(C)C [Example 11.20, N-((1-aminoisoquinolin-6-yl)methyl)-5-chloro-6-((2-(diisopropylamino)ethyl)amino)nicotinamide] |
| 3 to 10 | CN(C)CCCNc1ncc(C(=O)NCc2ccc3c(N)nccc3c2)cc1Cl [Example 11.21] |
| 3 to 10 | CC(C)N1CCN(CCCNc2ncc(C(=O)NCc3ccc4c(N)nccc4c3)cc2Cl)CC1 [Example 11.22] |
| 3 to 10 | CN(C)CCOc1ccc(CNc2ncc(C(=O)NCc3ccc4c(N)nccc4c3)cc2Cl)cc1 [Example 11.23, N-((1-aminoisoquinolin-6-yl)methyl)-5-chloro-6-((4-(2-(dimethylamino)ethoxy)benzyl)amino)nicotinamide] |
| 3 to 10 | CN1CCN(CCCNc2ncc(C(=O)NCc3ccc4c(N)nccc4c3)cc2Cl)CC1 [Example 11.24] |
| 10 to 40 | COc1ccc(Nc2ncc(C(=O)NCc3ccc4c(N)nccc4c3)cc2Cl)cc1 [Example 11.25] |
| 10 to 40 | CN(C)c1ccc(Nc2ncc(C(=O)NCc3ccc4c(N)nccc4c3)cc2Cl)cc1 [Example 11.26] |
| 10 to 40 | Nc1nccc2cc(CNC(=O)c3cnc(Nc4ccc(N5CCOCC5)cc4)c(Cl)c3)ccc12 [Example 11.27] |
| 10 to 40 | Nc1nccc2cc(CNC(=O)c3cnc(Oc4ccc(Cl)cc4)c(Cl)c3)ccc12 [Example 13.01] |
| 10 to 40 | COc1ccc(Oc2ncc(C(=O)NCc3ccc4c(N)nccc4c3)cc2Cl)cc1 [Example 13.02] |
| 10 to 40 | Nc1nccc2cc(CNC(=O)c3cnc(Oc4cccc(N5CCOCC5)c4)c(Cl)c3)ccc12 [Example 13.03] |
| 10 to 40 | Nc1nccc2cc(CNC(=O)c3cnc(OCc4cccnc4)c(Cl)c3)ccc12 [Example 13.04] |
| 10 to 40 | Nc1nccc2cc(CNC(=O)c3cnc(Oc4ccccc4)c(Cl)c3)ccc12 [Example 13.05] |
| 10 to 40 | Nc1nccc2cc(CNC(=O)c3cnc(Oc4ccccc4Cl)c(Cl)c3)ccc12 [Example 13.06] |
| 10 to 40 | N#Cc1ccc(Oc2ncc(C(=O)NCc3ccc4c(N)nccc4c3)cc2Cl)cc1 [Example 13.07] |
| 10 to 40 | N#Cc1cccc(Oc2ncc(C(=O)NCc3ccc4c(N)nccc4c3)cc2Cl)c1 [Example 13.08] |
| 3 to 10 | N#Cc1ccccc1Oc1ncc(C(=O)NCc2ccc3c(N)nccc3c2)cc1Cl [Example 13.09, N-((1-aminoisoquinolin-6-yl)methyl)-5-chloro-6-(2-cyanophenoxy)nicotinamide] |
| 10 to 40 | CN(C)c1ccc(Oc2ncc(C(=O)NCc3ccc4c(N)nccc4c3)cc2Cl)cc1 [Example 13.10] |
| 10 to 40 | COc1cccc(Oc2ncc(C(=O)NCc3ccc4c(N)nccc4c3)cc2Cl)c1 [Example 13.11] |
| 10 to 40 | COc1ccccc1Oc1ncc(C(=O)NCc2ccc3c(N)nccc3c2)cc1Cl [Example 13.12] |
| 3 to 10 | Cn1cnc2cc(Oc3ncc(C(=O)NCc4ccc5c(N)nccc5c4)cc3Cl)ccc21 [Example 13.13] |
| 10 to 40 | Nc1nccc2cc(CNC(=O)c3cnc(Oc4cccc(N5CCCC5=O)c4)c(Cl)c3)ccc12 [Example 13.14] |
| 10 to 40 | CS(=O)(=O)c1ccc(Oc2ncc(C(=O)NCc3ccc4c(N)nccc4c3)cc2Cl)cc1 [Example 13.15] |
| 3 to 10 | CC(C)NC(=O)N(C)c1ccc(Oc2ncc(C(=O)NCc3ccc4c(N)nccc4c3)cc2Cl)cc1 [Example 13.16] |
| 10 to 40 | CN1CCC(COc2ncc(C(=O)NCc3ccc4c(N)nccc4c3)cc2Cl)CC1 [Example 13.17] |

| IC50 [µM] | SMILES |
| --- | --- |
| 10 to 40 | Nc1nccc2cc(CNC(=O)c3cnc(OCCN4CCCC4)c(Cl)c3)ccc12 [Example 13.18] |
| 10 to 40 | CN(C)CCOc1ncc(C(=O)NCc2ccc3c(N)nccc3c2)cc1Cl [Example 13.19] |
| 10 to 40 | Nc1nccc2cc(CNC(=O)c3cnc(OCc4ccccn4)c(Cl)c3)ccc12 [Example 13.20] |
| 10 to 40 | Nc1nccc2cc(CNC(=O)c3cnc(OCc4ccncc4)c(Cl)c3)ccc12 [Example 13.21] |
| 10 to 40 | CCN(CC)CCCOc1ncc(C(=O)NCc2ccc3c(N)nccc3c2)cc1Cl [Example 13.22] |
| 10 to 40 | CN(C)CCCOc1ncc(C(=O)NCc2ccc3c(N)nccc3c2)cc1Cl [Example 13.23] |
| 1 to 3 | Nc1nccc2cc(CNC(=O)c3cnc(Oc4ccc(N5CCNCC5)cc4)c(Cl)c3)ccc12 [Example 13.24, N-((1-aminoisoquinolin-6-yl)methyl)-5-chloro-6-(4-(piperazin-1-yl)phenoxy)nicotinamide] |
| 3 to 10 | Nc1nccc2cc(CNC(=O)c3cnc(Oc4cccc(N5CCNCC5)c4)c(Cl)c3)ccc12 [Example 13.25] |
| 10 to 40 | CN1CCCN(c2ncc(Cl)cc2C(=O)NCc2ccc3c(N)nccc3c2)CC1 [Example 16.01] |
| 10 to 40 | Nc1nccc2cc(CNC(=O)c3cc(Cl)cnc3N3CC(O)C3)ccc12 [Example 16.02] |
| 10 to 40 | Nc1nccc2cc(CNC(=O)c3cc(Cl)cnc3N3CCN(c4ccncc4)CC3)ccc12 [Example 16.03] |
| 10 to 40 | COc1ccccc1-c1cncc(C(=O)NCc2ccc3c(N)nccc3c2)c1 [Example 19.01, N-((1-aminoisoquinolin-6-yl)methyl)-5-(2-methoxyphenyl)nicotinamide] |
| 10 to 40 | Nc1nccc2cc(CNC(=O)c3cncc(Br)c3)ccc12 [Example 19.02, N-((1-aminoisoquinolin-6-yl)methyl)-5-bromonicotinamide] |
| 10 to 40 | Nc1nccc2cc(CNC(=O)c3cnc4[nH]ccc4c3)ccc12 [Example 19.03, 1H-Pyrrolo[2,3-b]pyridine-5-carboxylic acid (1-amino-isoquinolin-6-ylmethyl)-amide] |
| 10 to 40 | Nc1nccc2cc(CNC(=O)c3cncc(Cl)c3)ccc12 [Example 19.04, N-((1-aminoisoquinolin-6-yl)methyl)-5-chloronicotinamide] |
| 10 to 40 | Nc1nccc2cc(CNC(=O)c3cccc(Cl)c3)ccc12 [Example 19.05, N-((1-aminoisoquinolin-6-yl)methyl)-3-chlorobenzamide] |
| 3 to 10 | Nc1nccc2cc(CNC(=O)c3cnc(Cl)c(Cl)c3)ccc12 [Example 19.06, N-(1-Amino-isoquinolin-6-ylmethyl)-5,6-dichloro-nicotinamide] |
| 3 to 10 | Nc1nccc2cc(CNC(=O)c3cc(Cl)cnc3Oc3ccc(N4CCCC4=O)cc3)ccc12 [Example 22.01, N-((1-aminoisoquinolin-6-yl)methyl)-5-chloro-2-(4-(2-oxopyrrolidin-1-yl)phenoxy)nicotinamide] |
| 10 to 40 | Cn1cnc2cc(Oc3ncc(Cl)cc3C(=O)NCc3ccc4c(N)nccc4c3)ccc21 [Example 22.02] |
| 10 to 40 | CN(C)c1ccc(Oc2ncc(Cl)cc2C(=O)NCc2ccc3c(N)nccc3c2)cc1 [Example 22.03] |
| 10 to 40 | CN(C(=O)C(C)(C)C)c1ccc(Oc2ncc(Cl)cc2C(=O)NCc2ccc3c(N)nccc3c2)cc1 [Example 22.04] |
| 10 to 40 | Nc1nccc2cc(CNC(=O)c3cc(Cl)cnc3Oc3cccc(N4CCCC4=O)c3)ccc12 [Example 22.05] |
| 10 to 40 | Nc1nccc2cc(CNC(=O)c3cc(Cl)cnc3OCCN3CCCCC3)ccc12 [Example 22.06] |
| 10 to 40 | CN1CCC(COc2ncc(Cl)cc2C(=O)NCc2ccc3c(N)nccc3c2)CC1 [Example 22.07] |

Reference: patent US20220298141A1, “ENZYME INHIBITORS” (KALVISTA PHARMACEUTICALS LIMITED, priority 2019, published 2022)
